Source: patent publication US20050176760A1, “N-'4-(2-imino-pyrrolidin-1-yl)phenyl!-acetamide and corresponding piperidine derivatives as factor xa inhibitors for the treatment of thrombo-embolic diseases” (Merck Patent GmbH, priority 2002, published 2005)

Columns and labels:
[1] = molecular target: FXa (Homo sapiens, UniProt P00742); assay: Factor Xa inhibition (FXa-IC50); format: biochemical; details: Table 1, pharmacological data, 'Affinity to receptors'
Text: The inhibition of factor Xa by the compounds according to the invention and the measurement of the anticoagulant and antithrombotic activity can be determined by conventional in-vitro or in-vivo methods. A suitable method is described, for example, by J. Hauptmann et al. in Thrombosis and Haemostasis 1990, 63, 220-223.
The inhibition of factor Xa can be measured, for example by the method of T. Hara et al. in Thromb. Haemostas. 1994, 71, 314-319.

[2] = molecular target: TF/FVIIa (Homo sapiens, UniProt P08709); assay: TF/factor VIIa inhibition (TF/FVIIa-IC50); format: biochemical; details: Table 1, pharmacological data, 'Affinity to receptors'
Chain of TF/FVIIa (P08709 213-466 limits assumed): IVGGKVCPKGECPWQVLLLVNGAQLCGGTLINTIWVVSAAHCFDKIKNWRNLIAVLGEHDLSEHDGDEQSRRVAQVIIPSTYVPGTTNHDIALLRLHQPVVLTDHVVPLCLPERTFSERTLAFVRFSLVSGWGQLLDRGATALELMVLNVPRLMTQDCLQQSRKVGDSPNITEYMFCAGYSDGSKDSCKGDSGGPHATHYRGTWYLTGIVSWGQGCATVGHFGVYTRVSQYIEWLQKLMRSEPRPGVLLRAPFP
Chain of TF/FVIIa (P08709 61-212 limits assumed): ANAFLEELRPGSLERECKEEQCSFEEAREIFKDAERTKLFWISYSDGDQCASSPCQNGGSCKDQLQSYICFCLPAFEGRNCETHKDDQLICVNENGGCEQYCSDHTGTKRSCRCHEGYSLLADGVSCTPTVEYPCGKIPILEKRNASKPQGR
Chain of TF/FVIIa (P13726 33-295 partner): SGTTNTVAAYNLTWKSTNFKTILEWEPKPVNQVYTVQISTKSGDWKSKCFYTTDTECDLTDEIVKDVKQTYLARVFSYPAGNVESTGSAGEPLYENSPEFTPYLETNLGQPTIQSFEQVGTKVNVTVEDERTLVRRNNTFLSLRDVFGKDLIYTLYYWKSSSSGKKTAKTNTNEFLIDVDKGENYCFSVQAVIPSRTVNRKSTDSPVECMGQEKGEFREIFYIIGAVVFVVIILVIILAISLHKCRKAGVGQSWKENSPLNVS
Text: The inhibition of factor Vila by the compounds according to the invention and the measurement of the anticoagulant and antithrombotic activity can be determined by conventional in-vitro or in-vivo methods. A conventional method for the measurement of the inhibition of factor VIIa is described, for example, by H. F. Ronning et al. in Thrombosis Research 1996, 84, 73-81.

Chain of FXa (P00742 235-488 limits assumed): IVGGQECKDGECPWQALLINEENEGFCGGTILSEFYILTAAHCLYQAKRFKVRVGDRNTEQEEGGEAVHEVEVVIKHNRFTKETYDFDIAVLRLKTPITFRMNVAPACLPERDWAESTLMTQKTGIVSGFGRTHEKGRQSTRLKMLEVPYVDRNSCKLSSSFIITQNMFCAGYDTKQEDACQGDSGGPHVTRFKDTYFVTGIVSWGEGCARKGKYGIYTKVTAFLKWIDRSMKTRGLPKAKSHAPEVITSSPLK
Chain of FXa (P00742 41-179 limits assumed): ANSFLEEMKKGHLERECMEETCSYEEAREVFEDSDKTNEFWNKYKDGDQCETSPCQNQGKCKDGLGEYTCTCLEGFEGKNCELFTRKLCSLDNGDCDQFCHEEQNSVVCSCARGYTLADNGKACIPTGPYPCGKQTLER

## Cc1cc(NC(=O)C(Nc2cccc(CN)c2)c2ccccc2Cl)ccc1N1CCCC1=NCCN(C)C (stereo not shown) [DA, 2-(3-aminomethylphenylamino)-N-[3-methyl-4-(2-(2-dimethylaminoethylimino)pyrrolidin-1-yl)phenyl]-2-(2-chloro)phenyl-acetamide]
[1]
  IC50: 66 nM
[2]
  IC50: 130 nM

## CC(C)C[C@H](Oc1ccc2ccnc(N)c2c1)C(=O)Nc1ccc(N2CCCCC2=N)cc1 [BB, (S)-2-(1-aminoisoquinolin-7-yloxy)-N-[4-(2-iminopiperidin-1-yl)phenyl]-4-methylvaleramide]
[1]
  IC50: 2700 nM
[2]
  IC50: 2000 nM

## CON=C1CCCCN1c1ccc(NC(=O)[C@H](CC(C)C)Oc2ccc3ccnc(N)c3c2)cc1 (single isomer, unassigned) [BA]
[1]
  IC50: 680 nM
[2]
  IC50: 490 nM

## NCc1cccc(NC(C(=O)Nc2ccc(N3CCCC3=NO)c(Cl)c2)c2ccccc2)c1 (racemic) [AA, (R, S)-2-(3-aminomethylphenylamino)-N-[3-chloro-4-(2-hydroxyiminopyrrolidin-1-yl)phenyl]-2-phenylacetamide]
[1]
  IC50: 220 nM
[2]
  IC50: 290 nM

## N=C1CCCN1c1ccc(NC(=O)C(Nc2cccc(CN)c2)c2ccccc2)cc1Cl (racemic) [AB, (R, S)-2-(3-aminomethylphenylamino)-N-[3-chloro-4-(2-iminopyrrolidin-1-yl)phenyl]-2-phenylacetamide]
[1]
  IC50: 58 nM
[2]
  IC50: 99 nM
